From patent publication US6914045B2, “Glycopeptide antibiotics” (Wyeth Holdings Corporation, priority 2001, dated 2005)
In brackets after ≈: the same amount, converted by molar mass.

Tests used:
Assay in all cases: in vitro antibacterial evaluation, MIC by broth dilution
Type in all cases: cell-based
Enterococcus sp. = conditions: broth dilution, 18 hours at 35° C.
Outline: (§1)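 Following National Committee for Clinical Laboratory Standards recommendations (M7-A2), susceptibility was measured by dilution in Muller-Hinton II […]. Bacteria were seeded at 5×10^5 CFU/mL against compound concentrations from 64 down to 0.06 μg/mL.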

Staphylococcus sp. = conditions: broth dilution, 18 hours at 35° C.
Outline: as §1

Streptococcus sp. = conditions: broth dilution, 18 hours at 35° C.
Outline: as §1

Escherichia coli = conditions: 18 hours at 35° C., strain ATCC 25922
Outline: as §1

For `CC(c1ccccc1)C1NC(=O)CNC(=O)C(CO)NC(=O)C(C(O)C2CNC(=N)N2C2OC(CO)C(O)C(O)C2O)NC(=O)C(C(O)C2CNC(=N)N2)NC(=O)C(Cc2ccc(OC3OC(COC(=O)OCc4ccccc4)C(OC4OC(CO)C(O)C(O)C4O)C(O)C3O)cc2)NC1=O` (stereo not drawn) [Example 101, Cyclo[glycyl-β-methylphenylalanyl-O-[4-O-hexopyranosyl-6-O-[(phenylmethoxy)carbonyl]-hexopyranosyl]tyrosyl-3-(2-iminoimidazolidin-4-yl)seryl-3-(3-hexopyranosyl-2-iminoimidazolidin-4-yl)serylseryl]], the “MIC Enterococcus avium (GC 4558)” value (Enterococcus sp.; Enterococcus avium (GC 4558)) was 32 µg/mL (≈ 22.4 µM), the “MIC Enterococcus faecalis (ATCC 29212)” value (Enterococcus sp.; Enterococcus faecalis (ATCC 29212)) was 32 µg/mL (≈ 22.4 µM) and the “MIC Enterococcus faecalis (GC 2242)” value (Enterococcus sp.; Enterococcus faecalis (GC 2242)) was 16 µg/mL (≈ 11.2 µM). The “MIC Enterococcus faecalis (GC 4552)” value (Enterococcus sp.; Enterococcus faecalis (GC 4552)) was 64 µg/mL (≈ 44.8 µM), the “MIC Enterococcus faecalis (GC 4553)” value (Enterococcus sp.; Enterococcus faecalis (GC 4553)) was 32 µg/mL (≈ 22.4 µM) and the “MIC Enterococcus faecalis (GC 4554)” value (Enterococcus sp.; Enterococcus faecalis (GC 4554)) was 64 µg/mL (≈ 44.8 µM). For the same compound, the “MIC Enterococcus faecium (GC 2243)” value (Enterococcus sp.; Enterococcus faecium (GC 2243)) was 32 µg/mL (≈ 22.4 µM), the “MIC Enterococcus faecium (GC 4556)” value (Enterococcus sp.; Enterococcus faecium (GC 4556)) was 32 µg/mL (≈ 22.4 µM) and the “MIC Enterococcus faecium (GC 4557)” value (Enterococcus sp.; Enterococcus faecium (GC 4557)) was 2 µg/mL (≈ 1.4 µM). For the same compound, the “MIC Enterococcus faecalis (ATCC 29212)” value (Enterococcus sp.; strain ATCC 29212) was 32 µg/mL (≈ 22.4 µM), the “MIC Enterococcus faecalis (GC 2242)” value (Enterococcus sp.; strain GC 2242) was 16 µg/mL (≈ 11.2 µM) and the “MIC Enterococcus faecium (GC 2243)” value (Enterococcus sp.; strain GC 2243) was 32 µg/mL (≈ 22.4 µM). For the same compound, the “MIC Enterococcus faecalis (GC 4552)” value (Enterococcus sp.; strain GC 4552) was 64 µg/mL (≈ 44.8 µM), the “MIC Enterococcus faecalis (GC 4553)” value (Enterococcus sp.; strain GC 4553) was 32 µg/mL (≈ 22.4 µM) and the “MIC Enterococcus faecalis (GC 4554)” value (Enterococcus sp.; strain GC 4554) was 64 µg/mL (≈ 44.8 µM). For the same compound, the “MIC Enterococcus faecium (GC 4556)” value (Enterococcus sp.; strain GC 4556) was 32 µg/mL (≈ 22.4 µM), the “MIC Enterococcus faecium (GC 4557)” value (Enterococcus sp.; strain GC 4557) was 2 µg/mL (≈ 1.4 µM) and the “MIC Enterococcus avium (GC 4558)” value (Enterococcus sp.; strain GC 4558) was 32 µg/mL (≈ 22.4 µM). For the same compound, the “MIC Coagulase Negative Staphylococcus (GC 4547)” value (Staphylococcus sp.) was 2 µg/mL (≈ 1.4 µM), the “MIC Coagulase Negative Staphylococcus (GC 4548)” value (Staphylococcus sp.) was 2 µg/mL (≈ 1.4 µM) and the “MIC Coagulase Negative Staphylococcus (GC 4549)” value (Staphylococcus sp.) was 1 µg/mL (≈ 0.7 µM). For the same compound, the “MIC Coagulase Negative Staphylococcus (GC 4551)” value (Staphylococcus sp.) was 8 µg/mL (≈ 5.6 µM), the “MIC Coagulase Negative Staphylococcus (ID-3941)” value (Staphylococcus sp.) was 1 µg/mL (≈ 0.7 µM) and the “MIC Staphylococcus aureus (ATCC 29213)” value (Staphylococcus sp.) was 4 µg/mL (≈ 2.8 µM). For the same compound, the “MIC Staphylococcus aureus (GC 1131)” value (Staphylococcus sp.) was 4 µg/mL (≈ 2.8 µM), the “MIC Staphylococcus aureus (GC 4541)” value (Staphylococcus sp.) was 4 µg/mL (≈ 2.8 µM) and the “MIC Staphylococcus aureus (GC 4542)” value (Staphylococcus sp.) was 8 µg/mL (≈ 5.6 µM). The “MIC Staphylococcus aureus (GC 4544)” value (Staphylococcus sp.) was 8 µg/mL (≈ 5.6 µM), the “MIC Staphylococcus aureus (GC 4545)” value (Staphylococcus sp.) was 4 µg/mL (≈ 2.8 µM) and the “MIC Staphylococcus aureus-SMITH (GC 4543)” value (Staphylococcus sp.) was 4 µg/mL (≈ 2.8 µM). For the same compound, the “MIC Staphylococcus haemolyticus (GC 4546)” value (Staphylococcus sp.) was 4 µg/mL (≈ 2.8 µM), the “MIC Staphylococcus haemolyticus (GC 4546)” value (Staphylococcus sp.; strain GC 4546) was 4 µg/mL (≈ 2.8 µM) and the “MIC Coagulase Negative Staphylococcus (GC 4547)” value (Staphylococcus sp.; strain GC 4547) was 2 µg/mL (≈ 1.4 µM). The “MIC Coagulase Negative Staphylococcus (GC 4548)” value (Staphylococcus sp.; strain GC 4548) was 2 µg/mL (≈ 1.4 µM), the “MIC Coagulase Negative Staphylococcus (GC 4549)” value (Staphylococcus sp.; strain GC 4549) was 1 µg/mL (≈ 0.7 µM) and the “MIC Coagulase Negative Staphylococcus (GC 4551)” value (Staphylococcus sp.; strain GC 4551) was 8 µg/mL (≈ 5.6 µM). For the same compound, the “MIC Coagulase Negative Staphylococcus (ID-3941)” value (Staphylococcus sp.; strain ID-3941) was 1 µg/mL (≈ 0.7 µM), the “MIC Staphylococcus aureus-SMITH (GC 4543)” value (Staphylococcus sp.; strain SMITH GC 4543) was 4 µg/mL (≈ 2.8 µM) and the “MIC Staphylococcus aureus (ATCC 29213)” value (Staphylococcus sp.; strain ATCC 29213) was 4 µg/mL (≈ 2.8 µM). For the same compound, the “MIC Staphylococcus aureus (GC 1131)” value (Staphylococcus sp.; strain GC 1131) was 4 µg/mL (≈ 2.8 µM), the “MIC Staphylococcus aureus (GC 4541)” value (Staphylococcus sp.; strain GC 4541) was 4 µg/mL (≈ 2.8 µM) and the “MIC Staphylococcus aureus (GC 4542)” value (Staphylococcus sp.; strain GC 4542) was 8 µg/mL (≈ 5.6 µM). The “MIC Staphylococcus aureus (GC 4544)” value (Staphylococcus sp.; strain GC 4544) was 8 µg/mL (≈ 5.6 µM), the “MIC Staphylococcus aureus (GC 4545)” value (Staphylococcus sp.; strain GC 4545) was 4 µg/mL (≈ 2.8 µM) and the “MIC Streptococcus agalactiae (GC 4564)” value (Streptococcus sp.; Streptococcus agalactiae (GC 4564)) was 2 µg/mL (≈ 1.4 µM). The “MIC Streptococcus pneumoniae (GC 4565)” value (Streptococcus sp.; Streptococcus pneumoniae (GC 4565)) was under 0.5 µg/mL, the “MIC Streptococcus pyogenes (ID-3187)” value (Streptococcus sp.; Streptococcus pyogenes (ID-3187)) was 2 µg/mL (≈ 1.4 µM) and the “MIC Streptococcus agalactiae (GC 4564)” value (Streptococcus sp.; strain GC 4564) was 2 µg/mL (≈ 1.4 µM). The “MIC Streptococcus pneumoniae (GC 4565)” value (Streptococcus sp.; strain GC 4565) was under 0.5 µg/mL, the “MIC Streptococcus pyogenes (ID-3187)” value (Streptococcus sp.; strain ID-3187) was 2 µg/mL (≈ 1.4 µM) and the “MIC Escherichia coli (ATCC 25922)” value (Escherichia coli) was over 64 µg/mL.
